Measured values as given in patent EP1586565A1, “Substituted polycyclic aryl and heteroaryl pyrazinones useful for selective inhibition of the coagulation cascade” (Pharmacia Corporation, priority 1999, dated 2000).

What was measured:
TF-VIIa = target: T1, TF-VIIa (Homo sapiens, UniProt P08709); experiment: TF-VIIa Assay; assay type: biochemical; details: for IC50 or % Inhibition TF-VIIa (30 µM): % inhibition at 30 µM (cells with % or %@30, bare 0)
T1 construct: An extrinsic pathway is initiated by the conversion of coagulation factor VII to VIIa by Xa; purchased American Diagnostica, Greenwich CT; Soluble TF was made in house in E. coli
T1 sequence (P08709 213-466 limits assumed): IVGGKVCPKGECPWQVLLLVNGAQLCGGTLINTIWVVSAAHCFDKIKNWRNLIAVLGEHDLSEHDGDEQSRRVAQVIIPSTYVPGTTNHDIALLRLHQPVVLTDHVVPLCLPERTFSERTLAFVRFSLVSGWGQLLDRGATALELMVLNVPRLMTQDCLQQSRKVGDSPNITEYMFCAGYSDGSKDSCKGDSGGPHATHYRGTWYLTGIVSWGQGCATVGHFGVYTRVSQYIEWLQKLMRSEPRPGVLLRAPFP
T1 sequence (P08709 61-212 limits assumed): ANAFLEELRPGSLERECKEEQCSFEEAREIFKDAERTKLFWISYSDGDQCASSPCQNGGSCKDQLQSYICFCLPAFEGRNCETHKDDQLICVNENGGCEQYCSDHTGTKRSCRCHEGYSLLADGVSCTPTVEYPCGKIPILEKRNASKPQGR
T1 sequence (P13726 33-251 partner limits assumed): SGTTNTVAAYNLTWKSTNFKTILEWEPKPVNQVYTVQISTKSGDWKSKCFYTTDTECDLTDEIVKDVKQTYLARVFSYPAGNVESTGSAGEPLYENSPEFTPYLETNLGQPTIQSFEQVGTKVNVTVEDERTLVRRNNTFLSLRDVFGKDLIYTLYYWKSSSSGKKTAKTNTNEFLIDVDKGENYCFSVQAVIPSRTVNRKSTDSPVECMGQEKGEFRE

Human factor Xa = target: T2, Human factor Xa (Homo sapiens, UniProt P00742); experiment: Xa Assay; assay type: biochemical; details: for IC50 or % Inhibition Factor Xa (30 µM): % inhibition at 30 µM (cells with % or %@30, bare 0)
T2 construct: leads from XII to XIIa to XIa to IXa and to the conversion of X to Xa; purchased Enzyme Research Laboratories, South Bend IN
T2 sequence (P00742 235-488 limits assumed): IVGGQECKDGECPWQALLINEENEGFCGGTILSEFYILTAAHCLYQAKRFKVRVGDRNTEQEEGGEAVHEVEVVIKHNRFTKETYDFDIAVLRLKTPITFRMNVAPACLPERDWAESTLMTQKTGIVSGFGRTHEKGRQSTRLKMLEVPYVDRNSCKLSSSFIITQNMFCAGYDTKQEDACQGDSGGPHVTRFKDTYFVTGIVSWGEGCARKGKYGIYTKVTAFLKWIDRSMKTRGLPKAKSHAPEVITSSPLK
T2 sequence (P00742 41-179 limits assumed): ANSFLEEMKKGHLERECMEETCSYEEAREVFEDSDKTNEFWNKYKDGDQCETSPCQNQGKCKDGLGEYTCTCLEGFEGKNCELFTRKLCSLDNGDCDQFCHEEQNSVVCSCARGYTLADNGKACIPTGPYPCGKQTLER

| Structure (SMILES) | IC50 or % Inhibition TF-VIIa (30 µM) (TF-VIIa) | IC50 or % Inhibition Factor Xa (30 µM) (Human factor Xa) | IC50 (TF-VIIa; cells printed as bare numbers (IC50), read-out: IC50 or % Inhibition TF-VIIa (30 µM)) | % Inhibition Factor Xa (100 µM) (Human factor Xa) |
| --- | --- | --- | --- | --- |
| N=C(N)c1ccc(CNC(=O)Cn2c(-c3ccc(-c4ccccc4)cc3)c(Cl)nc(NCCc3cccc(Cl)c3)c2=O)cc1 [1471-70] | 10% | 12% |  |  |
| N=C(N)c1ccc(CNC(=O)C(Cc2ccccc2)n2c(-c3ccccc3)c(Cl)nc(NC3CCC3)c2=O)cc1 (centres unmarked) [1517-08] | 43% | 0% |  |  |
| N=C(N)c1ccc(CNC(=O)Cn2c(-c3ccccc3)c(Cl)nc(NCc3cccc4ccccc34)c2=O)cc1 [1507-28] | 38% |  |  |  |
| COc1ccc(-c2c(Cl)nc(NCc3ccccc3)c(=O)n2CC(=O)NCc2ccc(C(=N)N)cc2)cc1 [1471-33] | 31% | 22% |  |  |
| N=C(N)c1ccc(CNC(=O)Cn2c(-c3ccccc3)c(Cl)nc(NCc3ccc(Cl)cc3Cl)c2=O)cc1 [1507-22] | 45% |  |  |  |
| N=C(N)c1ccc(CNC(=O)Cn2c(-c3ccccc3)c(Cl)nc(NCc3cccc(OC(F)(F)F)c3)c2=O)cc1 [1512-40] | 40% | 3% |  |  |
| N=C(N)c1ccc(CNC(=O)Cn2c(-c3ccccc3)c(Cl)nc(NCc3c(F)cccc3C(F)(F)F)c2=O)cc1 [1512-44] | 43% | 6% |  |  |
| COc1ccc(-c2c(Cl)nc(NCCN3CCOCC3)c(=O)n2CC(=O)NCc2ccc(C(=N)N)cc2)cc1 [1471-36] | 11% | 6% |  |  |
| N=C(N)c1ccc(CNC(=O)Cn2c(-c3ccccc3)c(Cl)nc(NCC(F)(F)F)c2=O)cc1 [1507-41] | 48% | 17% |  |  |
| N=C(N)c1ccc(CNC(=O)Cn2c(-c3ccc(-c4ccccc4)cc3)c(Cl)nc(NCCc3ccc(Cl)cc3)c2=O)cc1 [Example 22] | 0%@30 |  |  |  |
| CCc1c(Cl)nc(NCCc2cccc(Cl)c2)c(=O)n1CC(=O)NCc1ccc(C(=N)N)cc1 [1471-62] | 4% | 0% |  |  |
| Cc1cc(Cl)cc(Cl)c1CNc1nc(Cl)c(-c2ccccc2)n(CC(=O)NCc2ccc(C(=N)N)cc2)c1=O [1512-45] | 27% | 11% |  |  |
| N=C(N)c1ccc(CNC(=O)Cn2c(-c3ccccc3)c(Cl)nc(NC(Cc3ccccc3)c3ccccc3)c2=O)cc1 (centres unmarked) [1507-07] | 25% |  |  |  |
| N=C(N)c1ccc(CNC(=O)Cn2c(-c3ccc(C(F)(F)F)cc3)c(Cl)nc(NC3CCC3)c2=O)cc1 [1515-20] | 32% |  |  |  |
| N=C(N)c1ccc(CNC(=O)Cn2c(-c3ccc(-c4ccccc4)cc3)c(Cl)nc(NCc3ccncc3)c2=O)cc1 [1471-67] | 12% | 16% |  |  |
| N=C(N)c1ccc(CNC(=O)C(Cc2ccccc2)n2c(-c3ccccc3)c(Cl)nc(NCCc3ccccc3)c2=O)cc1 (centres unmarked) [1517-14] | 30% | 0% |  |  |
| N=C(N)c1ccc(CNC(=O)Cn2c(-c3ccc4c(c3)OCO4)c(Cl)nc(NCCN3CCOCC3)c2=O)cc1 [1471-44] | 34% | 13% |  |  |
| N=C(N)c1ccc(CNC(=O)Cn2c(-c3ccccc3)c(Cl)nc(NCc3cc(F)cc(C(F)(F)F)c3)c2=O)cc1 [1512-29] | 47% | 4% |  |  |
| Cc1cccc(Cl)c1CNc1nc(Cl)c(-c2ccccc2)n(CC(=O)NCc2ccc(C(=N)N)cc2)c1=O [1512-31] | 43% | 14% |  |  |
| N=C(N)c1ccc(CNC(=O)Cn2c(-c3ccccc3)c(Cl)nc(NC3Cc4ccccc4C3)c2=O)cc1 [1507-08] | 7% | 1% |  |  |
| N=C(N)c1ccc(CNC(=O)Cn2c(-c3ccc(-c4ccccc4)cc3)c(Cl)nc(NCCc3cccnc3)c2=O)cc1 [1471-72] | 15% | 22% |  |  |
| N=C(N)c1ccc(CNC(=O)Cn2c(-c3ccc(Cl)cc3)c(Cl)nc(NCc3ccncc3)c2=O)cc1 [1471-19] | 33% | 26% |  |  |
| COc1ccc(-c2c(Cl)nc(NCc3ccncc3)c(=O)n2CC(=O)NCc2ccc(C(=N)N)cc2)cc1 [1471-35] | 37% | 22% |  |  |
| N=C(N)c1ccc(CNC(=O)C(Cc2ccccc2)n2c(-c3ccccc3)c(Cl)nc(NCCc3cccc(Cl)c3)c2=O)cc1 (centres unmarked) [1517-20] | 22% | 0% |  |  |
| N=C(N)c1ccc(CNC(=O)Cn2c(-c3ccc(-c4ccccc4)cc3)c(Cl)nc(NCCc3cccnc3)c2=O)cc1 [Example 21] | 8%@30 |  |  |  |

| Structure (SMILES) | IC50 or % Inhibition TF-VIIa (30 µM) (TF-VIIa) | IC50 or % Inhibition Factor Xa (30 µM) (Human factor Xa) | IC50 (TF-VIIa; cells printed as bare numbers (IC50), read-out: IC50 or % Inhibition TF-VIIa (30 µM)) | % Inhibition Factor Xa (100 µM) (Human factor Xa) |
| --- | --- | --- | --- | --- |
| N=C(N)c1ccc(CNC(=O)Cn2c(-c3ccc(-c4ccccc4)cc3)c(Cl)nc(NCCc3ccccc3)c2=O)cc1 [1471-71] | 6% | 0% |  |  |
| CCCCNc1nc(Cl)c(-c2ccccc2)n(CC(=O)NCc2ccc(C(=N)N)cc2)c1=O [1517-35] | 33% | 0% |  |  |
| N=C(N)c1ccc(CNC(=O)Cn2c(-c3ccccc3)c(Cl)nc(N3CCC3)c2=O)cc1 [1522-28] |  |  | > 30 µM |  |
| Nc1n[nH]c2ccc(CNC(=O)Cn3c(-c4ccccc4)cnc(NCCc4ccccc4)c3=O)cc12 [Example 38] |  | 22% |  |  |
| CCCC(CCC)Nc1nc(Cl)c(-c2ccccc2)n(CC(=O)NCc2ccc(C(=N)N)cc2)c1=O [1517-26] |  | 0% |  |  |
| Cc1c(Cl)nc(NCCN2CCOCC2)c(=O)n1CC(=O)NCc1ccc(C(=N)N)cc1 [1471-4] |  | 0% |  |  |
| N=C(N)c1ccc(CNC(=O)Cn2c(-c3ccccc3)c(Cl)nc(NCc3c(F)cccc3F)c2=O)cc1 [1512-43] |  | 9% |  |  |
| N=C(N)c1ccc(CNC(=O)Cn2c(-c3ccccc3)c(Cl)nc(NC3CCc4ccccc43)c2=O)cc1 (centres unmarked) [1507-02] |  | 9% |  |  |
| N=C(N)c1ccc(CNC(=O)Cn2c(-c3ccccc3)c(Cl)nc(NCCc3ccc(Cl)cc3)c2=O)cc1 [1471-10] |  | 45% |  |  |
| COc1ccc(-c2c(Cl)nc(NCCc3ccncc3)c(=O)n2CC(=O)NCc2ccc(C(=N)N)cc2)cc1 [1471-37] | 39% | 7% |  |  |
| N=C(N)c1ccc(CNC(=O)Cn2c(-c3ccc(Cl)cc3)c(Cl)nc(NCCN3CCOCC3)c2=O)cc1 [1471-20] | 42% | 34% |  |  |
| O=C(Cn1c(-c2ccc(Cl)cc2)c(Cl)nc(NCc2ccccc2)c1=O)NCCc1ccncc1 [Example E-0025] |  |  |  | 0% |
| N=C(N)c1ccc(CNC(=O)Cn2c(-c3ccccc3)c(Cl)nc(NCc3ccc(Cl)cc3)c2=O)cc1 [1507-46] |  | 8% |  |  |
| COc1ccc(-c2c(Cl)nc(NCCc3cccnc3)c(=O)n2CC(=O)NCc2ccc(C(=N)N)cc2)cc1 [1471-40] | 40% | 11% |  |  |
| N=C(N)c1ccc(CNC(=O)Cn2c(-c3c(Cl)cccc3Cl)c(Cl)nc(NCc3ccccc3)c2=O)cc1 [1517-06] |  | 0% |  |  |
| CN(C)CCNc1nc(Cl)c(-c2ccccc2)n(CC(=O)NCc2ccc(C(=N)N)cc2)c1=O [1512-15] |  | 6% |  |  |
| O=C(Cn1c(-c2cccc(Cl)c2)c(Cl)nc(NCc2ccccc2)c1=O)NCCc1ccncc1 [Example E-0085] |  |  |  | 0% |
| CC(=O)Nc1cccc(-c2c(Cl)nc(NC(C)C)c(=O)n2CC(=O)NCCc2ccc(C(=N)N)cc2)c1 [Example 68] | 32% | 6% |  |  |
| N=C(N)c1ccc(CNC(=O)Cn2c(-c3ccccc3)c(Cl)nc(NCc3cc(C(F)(F)F)cc(C(F)(F)F)c3)c2=O)cc1 [1507-40] |  | 11% |  |  |
| N=C(N)c1ccc(CNC(=O)Cn2c(-c3ccccc3)c(Cl)nc(NCc3ccccc3Cl)c2=O)cc1 [1507-03] |  | 21% |  |  |
| N=C(N)c1ccc(CNC(=O)Cn2c(-c3ccccc3)c(Cl)nc(NCCc3ccccn3)c2=O)cc1 [1512-47] |  | 13% |  |  |
| N=C(N)c1ccc(CNC(=O)Cn2c(-c3ccsc3)c(Cl)nc(NC3CCC3)c2=O)cc1 [1517-07] |  | 0% |  |  |
| N=C(N)c1ccc(CNC(=O)Cn2c(-c3c(Cl)cccc3Cl)c(Cl)nc(NC3CCC3)c2=O)cc1 [1517-12] |  | 0% |  |  |
| COc1cccc(CNc2nc(Cl)c(-c3ccccc3)n(CC(=O)NCc3ccc(C(=N)N)cc3)c2=O)c1OC [1512-02] |  | 3% |  |  |
